System: E. coli, Streptococcus sp. and Proteus sp. isolated from the xenic culture
Experiment: Antibiotic susceptibility tests (antibiotic discs) with bacterial strains isolated from the xenic culture
Settings: strains isolated from original xenic culture (E. coli, Streptococcus sp., Proteus sp.)

Molecule | susceptibility tests of the bacterial strains
neomycin | resistant to most antibiotics, except meropenem, neomycin and rifampicin
C[C@@H](O)[C@H]1C(=O)N2C(C(=O)O)=C(S[C@@H]3CN[C@H](C(=O)N(C)C)C3)[C@H](C)[C@H]12 [meropenem] | resistant to most antibiotics, except meropenem, neomycin and rifampicin
